Reference: ChEMBL document CHEMBL2401728, “An unexpected Dimroth rearrangement leading to annelated thieno[3,2-d][1,2,3]triazolo[1,5-a]pyrimidines with potent antitumor activity” (Eur J Med Chem, 2013)

Legend:
Type in all cases: functional
Malme-3M [1] = experiment: Cytotoxicity against human MALME-3M cells assessed as cellular growth at 0.1 uM after 48 hrs by SRB assay relative to control
SR [2] = experiment: Cytotoxicity against human SR cells assessed as cellular growth at 0.01 uM after 48 hrs by SRB assay relative to control
UACC-62 [3] = experiment: Cytotoxicity against human UACC62 cells assessed as cellular growth at 1 uM after 48 hrs by SRB assay relative to control
IGROV-1 = experiment: Cytotoxicity against human IGROV1 cells after 48 hrs by SRB assay; settings: IGROV-1, 48 h
Hs-578T = experiment: Cytotoxicity against human Hs578T cells assessed as cellular growth at 1 uM after 48 hrs by SRB assay relative to control
SN12C = experiment: Cytotoxicity against human SN12C cells assessed as cellular growth at 100 uM after 48 hrs by SRB assay relative to control
SK-MEL-28 = experiment: Cytotoxicity against human SK-MEL-28 cells assessed as cellular growth at 10 uM after 48 hrs by SRB assay relative to control
MDA-MB-468 = experiment: Cytotoxicity against human MDA-MB-468 cells assessed as cellular growth at 0.01 uM after 48 hrs by SRB assay relative to control
SK-MEL-5 [4] = experiment: Cytotoxicity against human SK-MEL-5 cells assessed as cellular growth at 0.01 uM after 48 hrs by SRB assay relative to control
UACC-257 [5] = experiment: Cytotoxicity against human UACC257 cells assessed as cellular growth at 1 uM after 48 hrs by SRB assay relative to control
OVCAR-3 = experiment: Cytotoxicity against human OVCAR3 cells after 48 hrs by SRB assay; settings: OVCAR-3, 48 h
U-251 [6] = experiment: Cytotoxicity against human U251 cells after 48 hrs by SRB assay; settings: U-251, 48 h
SK-MEL-5 [7] = experiment: Cytotoxicity against human SK-MEL-5 cells assessed as cellular growth at 100 uM after 48 hrs by SRB assay relative to control
[8] = Cytotoxicity against human EKVX cells after 48 hrs by SRB assay
HCT-116 = experiment: Cytotoxicity against human HCT116 cells assessed as cellular growth at 0.01 uM after 48 hrs by SRB assay relative to control
OVCAR-4 = experiment: Cytotoxicity against human OVCAR4 cells assessed as cellular growth at 1 uM after 48 hrs by SRB assay relative to control
A498 [9] = experiment: Cytotoxicity against human A498 cells assessed as cellular growth at 0.01 uM after 48 hrs by SRB assay relative to control
SR [10] = experiment: Cytotoxicity against human SR cells assessed as cellular growth at 1 uM after 48 hrs by SRB assay relative to control
T47D = experiment: Cytotoxicity against human T47D cells assessed as cellular growth at 100 uM after 48 hrs by SRB assay relative to control
CCRF-CEM = experiment: Cytotoxicity against human CCRF-CEM cells assessed as cellular growth at 0.1 uM after 48 hrs by SRB assay relative to control
A498 [11] = experiment: Cytotoxicity against human A498 cells assessed as cellular growth at 10 uM after 48 hrs by SRB assay relative to control
Malme-3M [12] = experiment: Cytotoxicity against human MALME-3M cells assessed as cellular growth at 0.01 uM after 48 hrs by SRB assay relative to control
NCI-H226 = experiment: Cytotoxicity against human NCI-H226 cells assessed as cellular growth at 0.01 uM after 48 hrs by SRB assay relative to control
NCI-H522 [13] = experiment: Cytotoxicity against human NCI-H522 cells assessed as cellular growth at 100 uM after 48 hrs by SRB assay relative to control
NCI-H522 [14] = experiment: Cytotoxicity against human NCI-H522 cells assessed as cellular growth at 0.1 uM after 48 hrs by SRB assay relative to control
ACHN [15] = experiment: Cytotoxicity against human ACHN cells after 48 hrs by SRB assay
U-251 [16] = experiment: Cytotoxicity against human U251 cells assessed as cellular growth at 0.1 uM after 48 hrs by SRB assay relative to control
MDA-MB-231 = experiment: Cytotoxicity against human MDA-MB-231 cells assessed as cellular growth at 100 uM after 48 hrs by SRB assay relative to control
HL-60(TB) = experiment: Cytotoxicity against human HL-60(TB) cells assessed as cellular growth at 0.01 uM after 48 hrs by SRB assay relative to control
ACHN [17] = experiment: Cytotoxicity against human ACHN cells assessed as cellular growth at 0.01 uM after 48 hrs by SRB assay relative to control
UACC-62 [18] = experiment: Cytotoxicity against human UACC62 cells after 48 hrs by SRB assay; settings: UACC-62, 48 h
[19] = Cytotoxicity against human EKVX cells assessed as cellular growth at 10 uM after 48 hrs by SRB assay relative to control
UACC-257 [20] = experiment: Cytotoxicity against human UACC257 cells assessed as cellular growth at 0.01 uM after 48 hrs by SRB assay relative to control
U-251 [21] = experiment: Cytotoxicity against human U251 cells assessed as cellular growth at 100 uM after 48 hrs by SRB assay relative to control
SW-620 = experiment: Cytotoxicity against human SW620 cells assessed as cellular growth at 100 uM after 48 hrs by SRB assay relative to control
UO-31 = experiment: Cytotoxicity against human UO31 cells assessed as cellular growth at 0.01 uM after 48 hrs by SRB assay relative to control
Malme-3M [22] = experiment: Cytotoxicity against human MALME-3M cells after 48 hrs by SRB assay
[23] = read-out: LC50 (the source's name)
[24] = read-out: pLC50 (the source's name) (converted)

## O=C(CCCn1c2c(sc3ccccc32)c(=O)n2nnc(-c3ccccc3)c12)NCCc1c[nH]cn1
Malme-3M [1]
  Activity: 101%
SR [2]
  Activity: 108%
UACC-62 [3]
  Activity: 94%
IGROV-1; read-out: GI50
  GI50: 0.0997 µM
IGROV-1; [23]
  CC50: 5.04 µM
IGROV-1; read-out: TGI
  TGI: 2.07 µM
IGROV-1; read-out: pGI50 (converted)
  GI50: 0.1 µM
IGROV-1; [24]
  CC50: 5.01 µM
IGROV-1; read-out: pTGI (converted)
  TGI: 2.09 µM
Hs-578T
  Activity: 70%
SN12C
  Activity: -100%
SK-MEL-28
  Activity: -92%
MDA-MB-468
  Activity: 102%
SK-MEL-5 [4]
  Activity: 101%
UACC-257 [5]
  Activity: 109%
OVCAR-3; read-out: GI50
  GI50: 1.66 µM
OVCAR-3; [23]
  CC50: 5.66 µM
OVCAR-3; read-out: TGI
  TGI: 3.07 µM
OVCAR-3; read-out: pGI50 (converted)
  GI50: 1.66 µM
OVCAR-3; [24]
  CC50: 5.62 µM
OVCAR-3; read-out: pTGI (converted)
  TGI: 3.09 µM
U-251 [6]; read-out: GI50
  GI50: 0.165 µM
U-251 [6]; [23]
  CC50: 4.3 µM
U-251 [6]; read-out: TGI
  TGI: 1.85 µM
U-251 [6]; read-out: pGI50 (converted)
  GI50: 0.166 µM
U-251 [6]; [24]
  CC50: 4.27 µM
U-251 [6]; read-out: pTGI (converted)
  TGI: 1.86 µM
SK-MEL-5 [7]
  Activity: -100%
[8]; read-out: GI50
  GI50: 2.5 µM
[8]; [23]
  CC50: > 100 µM
[8]; read-out: TGI
  TGI: 15.8 µM
[8]; read-out: pGI50 (converted)
  GI50: 2.51 µM
[8]; [24]
  CC50: > 100 µM
[8]; read-out: pTGI (converted)
  TGI: 15.8 µM
HCT-116
  Activity: 16%
OVCAR-4
  Activity: 91%
A498 [9]
  Activity: 93%
SR [10]
  Activity: -18%
T47D
  Activity: -88%
CCRF-CEM
  Activity: 24%
A498 [11]
  Activity: -85%
Malme-3M [12]
  Activity: 100%
NCI-H226
  Activity: 97%
NCI-H522 [13]
  Activity: -25%
NCI-H522 [14]
  Activity: 42%
ACHN [15]; read-out: GI50
  GI50: 1.58 µM
ACHN [15]; [23]
  CC50: 6.26 µM
ACHN [15]; read-out: TGI
  TGI: 3.14 µM
ACHN [15]; read-out: pGI50 (converted)
  GI50: 1.58 µM
ACHN [15]; [24]
  CC50: 6.31 µM
ACHN [15]; read-out: pTGI (converted)
  TGI: 3.16 µM
U-251 [16]
  Activity: 54%
MDA-MB-231
  Activity: -100%
HL-60(TB)
  Activity: 93%
ACHN [17]
  Activity: 104%
UACC-62 [18]; read-out: GI50
  GI50: 1.81 µM
UACC-62 [18]; [23]
  CC50: 7.01 µM
UACC-62 [18]; read-out: TGI
  TGI: 3.56 µM
UACC-62 [18]; read-out: pGI50 (converted)
  GI50: 1.82 µM
UACC-62 [18]; [24]
  CC50: 7.08 µM
UACC-62 [18]; read-out: pTGI (converted)
  TGI: 3.55 µM
[19]
  Activity: 6%
UACC-257 [20]
  Activity: 108%
U-251 [21]
  Activity: -100%
SW-620
  Activity: -100%
UO-31
  Activity: 104%
Malme-3M [22]; read-out: GI50
  GI50: 1.58 µM
Malme-3M [22]; [23]
  CC50: 6.8 µM
Malme-3M [22]; read-out: TGI
  TGI: 3.28 µM
Malme-3M [22]; read-out: pGI50 (converted)
  GI50: 1.58 µM
Malme-3M [22]; [24]
  CC50: 6.76 µM
Malme-3M [22]; read-out: pTGI (converted)
  TGI: 3.31 µM

## CN1CCN(CCCn2c3c(sc4ncccc43)c(=O)n3nnc(-c4ccccc4)c23)CC1
Malme-3M [1]
  Activity: 81%
SR [2]
  Activity: 100%
UACC-62 [3]
  Activity: 84%
IGROV-1; read-out: GI50
  GI50: 2 µM
IGROV-1; [23]
  CC50: 9.78 µM
IGROV-1; read-out: TGI
  TGI: 4.42 µM
IGROV-1; read-out: pGI50 (converted)
  GI50: 2 µM
IGROV-1; [24]
  CC50: 9.77 µM
IGROV-1; read-out: pTGI (converted)
  TGI: 4.47 µM
Hs-578T
  Activity: 96%
SN12C
  Activity: -47%
SK-MEL-28
  Activity: 87%
MDA-MB-468
  Activity: 94%
SK-MEL-5 [4]
  Activity: 96%
UACC-257 [5]
  Activity: 97%
OVCAR-3; read-out: GI50
  GI50: 1.81 µM
OVCAR-3; [23]
  CC50: 6.68 µM
OVCAR-3; read-out: TGI
  TGI: 3.48 µM
OVCAR-3; read-out: pGI50 (converted)
  GI50: 1.82 µM
OVCAR-3; [24]
  CC50: 6.61 µM
OVCAR-3; read-out: pTGI (converted)
  TGI: 3.47 µM
U-251 [6]; read-out: GI50
  GI50: 1.82 µM
U-251 [6]; read-out: TGI
  TGI: 3.43 µM
U-251 [6]; read-out: pGI50 (converted)
  GI50: 1.82 µM
U-251 [6]; read-out: pTGI (converted)
  TGI: 3.47 µM
SK-MEL-5 [7]
  Activity: -96%
[8]; read-out: GI50
  GI50: 2.12 µM
[8]; [23]
  CC50: 15.7 µM
[8]; read-out: TGI
  TGI: 4.9 µM
[8]; read-out: pGI50 (converted)
  GI50: 2.14 µM
[8]; [24]
  CC50: 83.2 µM
[8]; read-out: pTGI (converted)
  TGI: 4.9 µM
HCT-116
  Activity: 97%
OVCAR-4
  Activity: 93%
A498 [9]
  Activity: 67%
SR [10]
  Activity: 104%
T47D
  Activity: -76%
CCRF-CEM
  Activity: 99%
A498 [11]
  Activity: 57%
Malme-3M [12]
  Activity: 83%
NCI-H226
  Activity: 95%
NCI-H522 [13]
  Activity: -35%
NCI-H522 [14]
  Activity: 97%
ACHN [15]; read-out: GI50
  GI50: 1.63 µM
ACHN [15]; [23]
  CC50: 6.79 µM
ACHN [15]; read-out: TGI
  TGI: 3.32 µM
ACHN [15]; read-out: pGI50 (converted)
  GI50: 1.62 µM
ACHN [15]; [24]
  CC50: 6.76 µM
ACHN [15]; read-out: pTGI (converted)
  TGI: 3.31 µM
U-251 [16]
  Activity: 100%
MDA-MB-231
  Activity: -42%
HL-60(TB)
  Activity: 98%
ACHN [17]
  Activity: 105%
UACC-62 [18]; read-out: GI50
  GI50: 16.6 µM
UACC-62 [18]; [23]
  CC50: 71 µM
UACC-62 [18]; read-out: TGI
  TGI: 34.3 µM
UACC-62 [18]; read-out: pGI50 (converted)
  GI50: 16.6 µM
UACC-62 [18]; [24]
  CC50: 70.8 µM
UACC-62 [18]; read-out: pTGI (converted)
  TGI: 34.7 µM
[19]
  Activity: -43%
UACC-257 [20]
  Activity: 94%
U-251 [21]
  Activity: -46%
SW-620
  Activity: -75%
UO-31
  Activity: 66%
Malme-3M [22]; read-out: GI50
  GI50: 1.97 µM
Malme-3M [22]; [23]
  CC50: 6.72 µM
Malme-3M [22]; read-out: TGI
  TGI: 3.64 µM
Malme-3M [22]; read-out: pGI50 (converted)
  GI50: 1.95 µM
Malme-3M [22]; [24]
  CC50: 6.76 µM
Malme-3M [22]; read-out: pTGI (converted)
  TGI: 3.63 µM
